Data as given in patent publication US20170022171A1, “2,5-DISUBSTITUTED CYCLOPENTANECARBOXYLIC ACIDS AND THEIR USE” (Bayer Pharma Aktiengesellschaft, priority 2014, published 2017).

Legend:
Format in all cases: biochemical
mouse MMP-9 = biological target: T1, mouse MMP-9 (Mus musculus, UniProt P41245); experiment: In vitro mouse MMP-9 inhibition test
T1 construct: purchased R&D Systems 909-MP

mouse MMP-8 = biological target: T2, mouse MMP-8 (Mus musculus, UniProt O70138); experiment: In vitro mouse MMP-8 inhibition test
T2 construct: purchased R&D Systems 2904-MP

mouse MMP-2 = biological target: T3, mouse MMP-2 (Mus musculus, UniProt P33434); experiment: In vitro mouse MMP-2 inhibition test
T3 construct: purchased R&D Systems 924-MP

mouse MMP-12 = biological target: T4, mouse MMP-12 (Mus musculus, UniProt P34960); experiment: In vitro mouse MMP-12 inhibition test (standard or high-sensitivity)
T4 construct: purchased R&D Systems 3467-MP

mouse MMP-7 = biological target: T5, mouse MMP-7 (Mus musculus, UniProt Q10738); experiment: In vitro mouse MMP-7 inhibition test
T5 construct: purchased R&D Systems 2967-MP
T5 sequence (Q10738 95-264): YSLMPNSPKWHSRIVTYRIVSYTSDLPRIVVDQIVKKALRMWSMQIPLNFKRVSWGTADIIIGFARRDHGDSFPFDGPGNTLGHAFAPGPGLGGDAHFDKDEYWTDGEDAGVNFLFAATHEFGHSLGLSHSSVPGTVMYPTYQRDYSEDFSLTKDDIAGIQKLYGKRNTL

T3 sequence (P33434 110-662): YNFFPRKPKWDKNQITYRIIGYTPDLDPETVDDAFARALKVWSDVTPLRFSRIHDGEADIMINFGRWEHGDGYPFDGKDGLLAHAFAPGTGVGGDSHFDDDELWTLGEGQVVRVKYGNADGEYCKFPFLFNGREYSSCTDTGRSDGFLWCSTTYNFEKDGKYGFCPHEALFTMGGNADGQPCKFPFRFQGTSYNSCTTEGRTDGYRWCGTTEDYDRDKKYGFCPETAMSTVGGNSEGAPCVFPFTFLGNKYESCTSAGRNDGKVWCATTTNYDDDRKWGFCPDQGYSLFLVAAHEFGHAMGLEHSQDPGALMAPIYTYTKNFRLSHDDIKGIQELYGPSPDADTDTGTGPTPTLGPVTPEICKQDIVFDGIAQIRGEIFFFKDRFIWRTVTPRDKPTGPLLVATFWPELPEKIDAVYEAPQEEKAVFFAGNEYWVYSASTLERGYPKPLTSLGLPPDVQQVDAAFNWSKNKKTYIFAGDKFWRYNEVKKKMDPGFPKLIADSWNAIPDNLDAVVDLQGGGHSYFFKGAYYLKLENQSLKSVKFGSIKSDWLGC
T2 sequence (O70138 101-465): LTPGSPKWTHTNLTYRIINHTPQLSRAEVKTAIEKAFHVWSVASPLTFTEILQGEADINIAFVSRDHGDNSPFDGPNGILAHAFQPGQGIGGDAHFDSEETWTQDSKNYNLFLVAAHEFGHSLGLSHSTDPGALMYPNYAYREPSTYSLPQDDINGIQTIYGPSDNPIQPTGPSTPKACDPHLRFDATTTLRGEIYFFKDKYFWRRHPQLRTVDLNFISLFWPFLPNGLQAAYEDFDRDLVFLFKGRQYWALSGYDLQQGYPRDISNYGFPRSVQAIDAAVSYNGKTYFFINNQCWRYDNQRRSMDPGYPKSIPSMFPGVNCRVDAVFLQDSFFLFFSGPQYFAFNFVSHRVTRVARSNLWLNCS
T4 sequence (P34960 110-473): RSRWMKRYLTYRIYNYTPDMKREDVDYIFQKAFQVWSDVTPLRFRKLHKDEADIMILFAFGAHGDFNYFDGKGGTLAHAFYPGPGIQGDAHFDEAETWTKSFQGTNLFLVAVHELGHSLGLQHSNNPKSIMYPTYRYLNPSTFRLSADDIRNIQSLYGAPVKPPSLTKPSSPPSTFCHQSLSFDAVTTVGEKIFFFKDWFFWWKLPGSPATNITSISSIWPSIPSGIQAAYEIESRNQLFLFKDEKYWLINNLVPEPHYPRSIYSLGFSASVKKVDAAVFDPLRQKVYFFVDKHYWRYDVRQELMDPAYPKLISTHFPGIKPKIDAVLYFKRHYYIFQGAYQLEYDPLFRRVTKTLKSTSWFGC
T1 sequence (P41245 108-730): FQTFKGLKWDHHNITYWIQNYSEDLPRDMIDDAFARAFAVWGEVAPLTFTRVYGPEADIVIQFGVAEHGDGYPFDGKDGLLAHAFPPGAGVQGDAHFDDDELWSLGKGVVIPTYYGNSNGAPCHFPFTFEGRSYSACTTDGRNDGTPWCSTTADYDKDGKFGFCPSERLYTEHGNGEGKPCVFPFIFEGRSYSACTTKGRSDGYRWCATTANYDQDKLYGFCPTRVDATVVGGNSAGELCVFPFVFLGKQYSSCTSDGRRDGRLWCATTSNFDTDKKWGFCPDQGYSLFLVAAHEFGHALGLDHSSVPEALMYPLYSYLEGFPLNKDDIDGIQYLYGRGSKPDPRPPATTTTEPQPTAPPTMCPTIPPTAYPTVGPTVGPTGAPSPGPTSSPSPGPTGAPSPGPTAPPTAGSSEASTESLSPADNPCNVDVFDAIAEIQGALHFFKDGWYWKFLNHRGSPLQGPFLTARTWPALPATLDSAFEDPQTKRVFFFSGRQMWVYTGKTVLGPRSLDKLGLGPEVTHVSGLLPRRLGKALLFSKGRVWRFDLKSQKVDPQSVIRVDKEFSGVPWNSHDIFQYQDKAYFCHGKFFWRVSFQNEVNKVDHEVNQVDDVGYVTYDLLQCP

IC50 (mouse MMP-9): 2800 nM
IC50 (mouse MMP-8): 160 nM
IC50 (mouse MMP-2): 1800 nM
IC50 (mouse MMP-12): 10 nM
IC50 (mouse MMP-7): 170 nM
Compound: O=C(O)[C@@H]1[C@@H](Cn2nnc3ccc(C(F)(F)F)cc3c2=O)CC[C@H]1C(=O)c1ccc(OCCC2CCCCC2)cc1 (single isomer, unassigned) [Example 52, (+)-(1RS,2RS,5SR)-2-[4-(2-Cyclohexylethoxy)benzoyl]-5-{[4-oxo-6-(trifluoromethyl)-1,2,3-benzotriazin-3(4H)-yl]methyl}cyclopentanecarboxylic acid]
